This passage reports IC50 results from US8309718B2, “4-pyrazolyl-N-arylpyrimidin-2-amines and 4-pyrazolyl-N-heteroarylpyrimidin-2-amines as janus kinase inhibitors” (Incyte Corporation, priority 2007, dated 2012).

This experiment concerns the target T1, human JAK2 (Homo sapiens, UniProt O60674).
T1 construct: JAK2 (a.a. 828-1132); His tag (N); made in house; host or cells: insect cells (baculovirus)
Description: In vitro JAK kinase assay (HTRF, phosphorylation of biotinylated peptide). It is filed as biochemical. The following applies: catalytic domain a.a. 828-1132, 30 μM ATP, 500 nM peptide, room temperature 1 hr; read-out: JAK-2 IC50. The method, boiled down: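 His-tagged human JAK2 catalytic domain (a.a. 828-1132), baculovirus/insect-cell expressed; phosphorylation of 500 nM biotinylated peptide at 30 μM ATP in 50 mM Tris pH 7.8, 100 mM NaCl, 5 mM DTT, 0.01% BSA. 1 h at room temperature, EDTA stop, HTRF read (Eu-Py20/SA-APC); IC50.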

Usually IC50 stands for the concentration at which inhibition is half-maximal.

Structures are written as SMILES. A value given as a limit tells only on which side of the number the result lay.

T1 sequence (O60674 828-1132): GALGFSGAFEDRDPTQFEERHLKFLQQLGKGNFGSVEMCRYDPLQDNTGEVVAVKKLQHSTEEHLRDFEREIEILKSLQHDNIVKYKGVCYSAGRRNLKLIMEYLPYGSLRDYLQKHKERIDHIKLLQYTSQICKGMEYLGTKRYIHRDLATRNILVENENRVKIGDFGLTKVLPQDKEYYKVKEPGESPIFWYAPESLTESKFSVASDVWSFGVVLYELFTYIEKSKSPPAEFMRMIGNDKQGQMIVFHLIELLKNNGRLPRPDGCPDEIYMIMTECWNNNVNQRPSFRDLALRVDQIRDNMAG

`COCC(C)NC(=O)c1ccc(Nc2ncc(C)c(-c3cnn(C(CC#N)C4CCCC4)c3)n2)cc1` (mixture of isomers) [Example 87, 4-(4-(1-(2-cyano-1-cyclopentylethyl)-1H-pyrazol-4-yl)-5-methylpyrimidin-2-ylamino)-N-(1-methoxypropan-2-yl)benzamide]: the IC50 was under 100 nM.

`N#CCC(C1CCCC1)n1cc(-c2ccnc(Nc3ccc(C(=O)N4CCOCC4)cc3)n2)cn1` (racemic) [Example 213, 3-cyclopentyl-3-(4-(2-(4-(morpholine-4-carbonyl)phenylamino)pyrimidin-4-yl)-1H-pyrazol-1-yl)propanenitrile]: the IC50 is under 100 nM. Take `N#CCC(C1CCCC1)n1cc(-c2ccnc(Nc3ccc(C(=O)N4CCC(O)CC4)cc3)n2)cn1` (racemic) [Example 124, 3-cyclopentyl-3-(4-(2-(4-(4-hydroxypiperidine-1-carbonyl)phenylamino)pyrimidin-4-yl)-1H-pyrazol-1-yl)propanenitrile]: the IC50 was under 100 nM. Take `Cc1cc(OC2CCC(CC#N)(n3cc(-c4ccnc(Nc5cccc(-c6cnco6)c5)n4)cn3)CC2)no1` (single isomer, unassigned) [Example 247, 2-(4-(5-methylisoxazol-3-yloxy)-1-(4-(2-(3-(oxazol-5-yl)phenylamino)pyrimidin-4-yl)-1H-pyrazol-1-yl)cyclohexyl)acetonitrile]: the IC50 was under 100 nM.

As to `CC(=O)N1CCN(C(=O)c2ccc(Nc3nccc(-c4cnn(C5(CC#N)CC(C#N)C5)c4)n3)cc2)CC1` (single isomer, unassigned) [Example 298, 3-(4-(2-(4-(4-acetylpiperazine-1-carbonyl)phenylamino)pyrimidin-4-yl)-1H-pyrazol-1-yl)-3-(cyanomethyl)cyclobutanecarbonitrile], the IC50 is under 100 nM. Next, `N#CCC1(n2cc(-c3ccnc(Nc4cccc(-c5nnn[nH]5)c4)n3)cn2)CCN(C(=O)c2ccno2)CC1` (racemic) [Example 14, 2-(4-(4-(2-(3-(1H-tetrazol-5-yl)phenylamino)pyrimidin-4-yl)-1H-pyrazol-1-yl)-1-(isoxazole-5-carbonyl)piperidin-4-yl)acetonitrile]: under 100 nM; `N#CCC(C1CCCC1)n1cc(-c2ccnc(Nc3ccc(N4CCOC4=O)cc3)n2)cn1` (racemic) [Example 107, 3-cyclopentyl-3-(4-(2-(4-(2-oxooxazolidin-3-yl)phenylamino)pyrimidin-4-yl)-1H-pyrazol-1-yl)propanenitrile]: under 100 nM. As for `N#CCC(C1CCCC1)n1cc(-c2ccnc(Nc3ccc(C(N)=O)cc3)n2)cn1` (racemic) [Example 33, 4-(4-(1-(2-cyano-1-cyclopentylethyl)-1H-pyrazol-4-yl)pyrimidin-2-ylamino)benzamide], the IC50 was under 100 nM. In the case of `Cc1cnc(Nc2ccc(NS(C)(=O)=O)cc2)nc1-c1cnn(C(CC#N)C2CCCC2)c1` (racemic) [Example 89, N-(4-(4-(1-(2-cyano-1-cyclopentylethyl)-1H-pyrazol-4-yl)-5-methylpyrimidin-2-ylamino)phenyl)methanesulfonamide], the IC50 was under 100 nM.

Turning to `CCS(=O)(=O)N1CCC(CC(CC#N)n2cc(-c3ccnc(Nc4ccccc4)n3)cn2)CC1` (racemic) [Example 44, 4-(1-(ethylsulfonyl)piperidin-4-yl)-3-(4-(2-(phenylamino)pyrimidin-4-yl)-1H-pyrazol-1-yl)butanenitrile], the IC50 was under 100 nM. Under `CC(=O)Nc1cccc(Nc2nccc(-c3cnn(C(CC#N)C4CCCC4)c3)n2)c1` (racemic) [Example 117, N-(3-(4-(1-(2-cyano-1-cyclopentylethyl)-1H-pyrazol-4-yl)pyrimidin-2-ylamino)phenyl)acetamide] stands under 100 nM.

Regarding `N#CCC1(n2cc(-c3ccnc(Nc4ccc(N5CCOCC5)cc4)n3)cn2)CCN(C(=O)c2ccno2)CC1` [Example 94, 2-(1-(isoxazole-5-carbonyl)-4-(4-(2-(4-morpholinophenylamino)pyrimidin-4-yl)-1H-pyrazol-1-yl)piperidin-4-yl)acetonitrile], the IC50 was under 100 nM. As for `COC1CCN(C(=O)c2ccc(Nc3nccc(-c4cnn(C(CC#N)C5CCOCC5)c4)n3)cc2)CC1` (racemic) [Example 313, 3-{4-[2-({4-[(4-methoxypiperidin-1-yl)carbonyl]phenyl}amino)pyrimidin-4-yl]-1H-pyrazol-1-yl}-3-(tetrahydro-2H-pyran-4-yl)propanenitrile], the IC50 was under 100 nM. `N#CCC(C1CCCC1)n1cc(-c2ccnc(Nc3ccc(C(=O)N4[C@@H]5CC[C@H]4C[C@@H](O)C5)cc3)n2)cn1` (mixture of isomers) [Example 215, 3-cyclopentyl-3-(4-(2-(4-((3-endo)-3-hydroxy-8-azabicyclo[3.2.1]octane-8-carbonyl)phenylamino)pyrimidin-4-yl)-1H-pyrazol-1-yl)propanenitrile]: the IC50 is under 100 nM. Regarding `Cc1cnc(Nc2ccc(-n3cccn3)cc2)nc1-c1cnn(C(CC#N)C2CCCC2)c1` (racemic) [Example 71, 3-(4-(2-(4-(1H-pyrazol-1-yl)phenylamino)-5-methylpyrimidin-4-yl)-1H-pyrazol-1-yl)-3-cyclopentylpropanenitrile], the IC50 is under 100 nM. Regarding `COc1ccc(Nc2nccc(-c3cnn(C4(CC#N)CCN(C(=O)c5ccno5)CC4)c3)n2)cn1` (racemic) [Example 16, 2-(1-(isoxazole-5-carbonyl)-4-(4-(2-(6-methoxypyridin-3-ylamino)pyrimidin-4-yl)-1H-pyrazol-1-yl)piperidin-4-yl)acetonitrile], the IC50 is under 100 nM.

As for `N#CCC(C1CCCC1)n1cc(-c2ccnc(Nc3ccc(N4CCCS4(=O)=O)cc3)n2)cn1` (racemic) [Example 192, 3-cyclopentyl-3-(4-(2-(4-(1,1-dioxidoisothiazolidin-2-yl)phenyl)aminopyrimidin-4-yl)-1H-pyrazol-1-yl)propanenitrile], the IC50 is under 100 nM. Take `COc1ccccc1CNC(=O)c1cccc(Nc2nccc(-c3cnn(C(CC#N)C4CCCC4)c3)n2)c1` (racemic) [Example 163, 3-(4-(1-(2-cyano-1-cyclopentylethyl)-1H-pyrazol-4-yl)pyrimidin-2-ylamino)-N-(2-methoxybenzyl)benzamide]: the IC50 is under 100 nM.

Take `N#CCC(C1CC1)n1cc(-c2ccnc(Nc3ccc(C(=O)NC4CCOCC4)cc3)n2)cn1` (racemic) [Example 254, 4-(4-(1-(2-cyano-1-cyclopropylethyl)-1H-pyrazol-4-yl)pyrimidin-2-ylamino)-N-(tetrahydro-2H-pyran-4-yl)benzamide]: the IC50 was under 100 nM. For `COc1cnc(Nc2ccc(NC(C)=O)cc2)nc1-c1cnn(C(CC#N)C2CCCC2)c1` (racemic) [Example 103, N-(4-(4-(1-(2-cyano-1-cyclopentylethyl)-1H-pyrazol-4-yl)-5-methoxypyrimidin-2-ylamino)phenyl)acetamide], the IC50 was under 100 nM. Under `N#CCC(C1CCCC1)n1cc(-c2ccnc(Nc3ccc(C(=O)N4CCN(CCO)CC4)cc3)n2)cn1` (racemic) [Example 121, 3-cyclopentyl-3-(4-(2-(4-(4-(2-hydroxyethyl)piperazine-1-carbonyl)phenylamino)pyrimidin-4-yl)-1H-pyrazol-1-yl)propanenitrile] stands under 100 nM; under `CCS(=O)(=O)N1CC(CC#N)(n2cc(-c3ccnc(Nc4ccc(C(=O)N5C6CC7CC5CC(C6)O7)cc4)n3)cn2)C1` [Example 274, 1-(ethylsulfonyl)-3-(4-(2-(4-(2-oxa-6-azatricyclo[3.3.1.1(3,7)]dec-6-ylcarbonyl)phenyl)aminopyrimidin-4-yl)-1H-pyrazol-1-yl)azetidin-3-ylacetonitrile], under 100 nM. For the compound `CCS(=O)(=O)N1CC(CC#N)(n2cc(-c3ccnc(Nc4ccc(C(=O)N5CC[C@@H](O)C5)cc4)n3)cn2)C1` [Example 278, (R)-2-(1-(ethylsulfonyl)-3-(4-(2-(4-(3-hydroxypyrrolidine-1-carbonyl)phenylamino)pyrimidin-4-yl)-1H-pyrazol-1-yl)azetidin-3-yl)acetonitrile], the half-inhibitory concentration (IC50) is under 100 nM. As to `N#CCC1(n2cc(-c3ccnc(Nc4ccc(S(=O)(=O)N5CCOCC5)cc4)n3)cn2)CCN(C(=O)c2ccno2)CC1` (racemic) [Example 15, 2-(1-(isoxazole-5-carbonyl)-4-(4-(2-(4-(morpholinosulfonyl)phenylamino)pyrimidin-4-yl)-1H-pyrazol-1-yl)piperidin-4-yl)acetonitrile], the IC50 is under 100 nM. As for `CC1(C)CCOC12CCN(C(=O)c1ccc(Nc3nccc(-c4cnn(C(CC#N)C5CCCC5)c4)n3)cc1)C2` (mixture of isomers) [Example 220, 3-cyclopentyl-3-(4-(2-(4-(4,4-dimethyl-1-oxa-7-azaspiro[4.4]nonane-7-carbonyl)phenylamino)pyrimidin-4-yl)-1H-pyrazol-1-yl)propanenitrile], the IC50 is under 100 nM.

`Cc1cnc(Nc2ccc(NC(=O)CN3CCCC3)cc2)nc1-c1cnn(C(CC#N)C2CCCC2)c1` (racemic) [Example 91, N-(4-(4-(1-(2-cyano-1-cyclopentylethyl)-1H-pyrazol-4-yl)-5-methylpyrimidin-2-ylamino)phenyl)-2-(pyrrolidin-1-yl)acetamide]: the IC50 is under 100 nM.

In the case of `N#CCC(C1CCCC1)n1cc(-c2ccnc(Nc3ccc(C(=O)N4CCCC4)cc3)n2)cn1` (racemic) [Example 122, 3-cyclopentyl-3-(4-(2-(4-(pyrrolidine-1-carbonyl)phenylamino)pyrimidin-4-yl)-1H-pyrazol-1-yl)propanenitrile], the half-inhibitory concentration (IC50) is under 100 nM.

Turning to `N#CCC(C1CCCC1)n1cc(-c2ccnc(Nc3ccc(N4CCOCC4=O)cc3)n2)cn1` (racemic) [Example 98, 3-cyclopentyl-3-(4-(2-(4-(3-oxomorpholino)phenylamino)pyrimidin-4-yl)-1H-pyrazol-1-yl)propanenitrile], the IC50 was under 100 nM.
